#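 In this assay, cells in 96-well plates receive the compound at five concentrations for 48 hours. Endpoints are linearly interpolated between the surrounding concentrations. Here, GI50 denotes the concentration required for 50% inhibition of growth.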 Activity calls are given as the source filed them. Cut-off read from the data, not from the text of the source: active = GI50 up to about 1.1 µM and inactive = higher. Where a SMILES comes first, the peptide text is derived from it. [ ]: non-standard residue; d: D form. The star is where a group is joined. Hyp = O=C(O)[CH]1C[CH](O)CN1; Cbz = O=C(OCc1ccccc1)*
# Columns and labels:
# Assay in all cases: NCI tumour cell line growth inhibition, 48 h
# ACHN = test system: ACHN
# BT-549 = test system: BT-549
# COLO 205 = test system: COLO 205
# HT-29 = test system: HT-29
# Hs-578T = test system: Hs-578T
# M14 = test system: M14
# Malme-3M = test system: Malme-3M
# NCI-H522 = test system: NCI-H522
# OVCAR-3 = test system: OVCAR-3
# OVCAR-4 = test system: OVCAR-4
# OVCAR-5 = test system: OVCAR-5
# RPMI-8226 = test system: RPMI-8226
# SK-MEL-2 = test system: SK-MEL-2
# SNB-19 = test system: SNB-19
# T47D = test system: T47D
# UO-31 = test system: UO-31
# HCT-116 = test system: HCT-116
# NCI/ADR-RES = test system: NCI/ADR-RES
# SF-539 = test system: SF-539
# CAKI-1 = test system: CAKI-1
SMILES,GI50 (ACHN),GI50 (BT-549),GI50 (COLO 205),GI50 (HT-29),GI50 (Hs-578T),GI50 (M14),GI50 (Malme-3M),GI50 (NCI-H522),GI50 (OVCAR-3),GI50 (OVCAR-4),GI50 (OVCAR-5),GI50 (RPMI-8226),GI50 (SK-MEL-2),GI50 (SNB-19),GI50 (T47D),GI50 (UO-31),GI50 (HCT-116),GI50 (NCI/ADR-RES),GI50 (SF-539),GI50 (CAKI-1)
CN1CCN(C(=S)N(C)C(=O)c2ccc(Cl)cc2)CC1,0.132 µM (active),> 100 µM (inactive),> 100 µM (inactive),> 100 µM (inactive),> 100 µM (inactive),> 100 µM (inactive),> 100 µM (inactive),> 100 µM (inactive),> 100 µM (inactive),> 100 µM (inactive),> 100 µM (inactive),> 100 µM (inactive),> 100 µM (inactive),> 100 µM (inactive),> 100 µM (inactive),> 100 µM (inactive),–,–,–,–
CCNC1=C(NC(=O)CCl)C(=O)c2ccccc2C1=O,18 µM (inactive),> 10 µM (inactive),> 10 µM (inactive),> 10 µM (inactive),24.2 µM (inactive),20.9 µM (inactive),19.9 µM (inactive),15.1 µM (inactive),17.7 µM (inactive),17 µM (inactive),19.6 µM (inactive),34 µM (inactive),–,26.7 µM (inactive),22.3 µM (inactive),–,18.4 µM (inactive),23.6 µM (inactive),21.7 µM (inactive),–
c1cc(-c2ccc(-c3ccc(-c4ccc(-c5cccc6nsnc56)[nH]4)c4nsnc34)[nH]2)c2nsnc2c1,> 100 µM (inactive),> 100 µM (inactive),> 100 µM (inactive),> 100 µM (inactive),> 100 µM (inactive),> 100 µM (inactive),> 100 µM (inactive),> 100 µM (inactive),> 100 µM (inactive),> 100 µM (inactive),> 100 µM (inactive),> 100 µM (inactive),> 100 µM (inactive),> 100 µM (inactive),> 100 µM (inactive),> 100 µM (inactive),> 100 µM (inactive),> 100 µM (inactive),–,–
O=C1NC(=S)NC(=O)C1C(c1ccc([N+](=O)[O-])cc1)C1C(=O)NC(=S)NC1=O.c1ccncc1,> 100 µM (inactive),> 100 µM (inactive),> 100 µM (inactive),> 100 µM (inactive),> 100 µM (inactive),> 100 µM (inactive),–,> 100 µM (inactive),> 100 µM (inactive),> 100 µM (inactive),> 100 µM (inactive),> 100 µM (inactive),> 100 µM (inactive),> 100 µM (inactive),> 100 µM (inactive),> 100 µM (inactive),> 100 µM (inactive),> 100 µM (inactive),–,> 100 µM (inactive)
O=c1[nH]nc(-c2ccccc2)n1-n1cccc1,> 100 µM (inactive),> 100 µM (inactive),> 100 µM (inactive),> 100 µM (inactive),> 100 µM (inactive),> 100 µM (inactive),> 100 µM (inactive),> 100 µM (inactive),> 100 µM (inactive),> 100 µM (inactive),> 100 µM (inactive),> 100 µM (inactive),> 100 µM (inactive),> 100 µM (inactive),> 100 µM (inactive),> 100 µM (inactive),> 100 µM (inactive),> 100 µM (inactive),–,> 100 µM (inactive)
COC(=O)[C@@H]1C[C@H]2OC(=O)CC[C@]2(C)O[C@H]1[C@H]1O[C@@](C)(O)CCC[C@H]1C,> 50 µM (inactive),> 50 µM (inactive),> 50 µM (inactive),> 50 µM (inactive),> 50 µM (inactive),> 50 µM (inactive),> 50 µM (inactive),28.6 µM (inactive),> 50 µM (inactive),> 50 µM (inactive),> 50 µM (inactive),> 50 µM (inactive),> 50 µM (inactive),> 50 µM (inactive),> 50 µM (inactive),> 50 µM (inactive),> 50 µM (inactive),–,> 50 µM (inactive),> 50 µM (inactive)
CC1=NN=C(N)NC1=CC(Sc1ccc(Cl)cc1)c1c(O)ccc2ccccc12 (centres undefined),5.16 µM (inactive),13.6 µM (inactive),16.9 µM (inactive),20.5 µM (inactive),5.25 µM (inactive),11.9 µM (inactive),3.88 µM (inactive),15.5 µM (inactive),–,16.8 µM (inactive),23.1 µM (inactive),13.5 µM (inactive),5.02 µM (inactive),20.6 µM (inactive),8.51 µM (inactive),6.07 µM (inactive),18.9 µM (inactive),20.2 µM (inactive),–,23.7 µM (inactive)
Nc1nonc1-c1noc(-c2nonc2N)[n+]1[O-],33.8 µM (inactive),64.1 µM (inactive),> 10 µM (inactive),16 µM (inactive),> 100 µM (inactive),29.6 µM (inactive),20.4 µM (inactive),13.1 µM (inactive),–,> 100 µM (inactive),33.7 µM (inactive),54.6 µM (inactive),> 100 µM (inactive),> 100 µM (inactive),> 10 µM (inactive),42.9 µM (inactive),> 100 µM (inactive),69.2 µM (inactive),–,18.4 µM (inactive)
Nc1nc(SCc2ccccc2Cl)cc(C(=O)O)n1,91.4 µM (inactive),97.9 µM (inactive),39.4 µM (inactive),> 100 µM (inactive),49.1 µM (inactive),> 100 µM (inactive),39.4 µM (inactive),30.9 µM (inactive),28.6 µM (inactive),60 µM (inactive),78 µM (inactive),54.1 µM (inactive),58.9 µM (inactive),> 100 µM (inactive),> 100 µM (inactive),67 µM (inactive),54.5 µM (inactive),33.4 µM (inactive),–,> 100 µM (inactive)
Cc1nn(C(=O)c2ccncc2)c2c1C(c1ccc([N+](=O)[O-])cc1)SC(=N)N2 (centres undefined),> 100 µM (inactive),> 100 µM (inactive),> 100 µM (inactive),> 100 µM (inactive),> 100 µM (inactive),> 100 µM (inactive),> 100 µM (inactive),–,> 100 µM (inactive),> 100 µM (inactive),> 100 µM (inactive),> 100 µM (inactive),> 100 µM (inactive),> 100 µM (inactive),> 100 µM (inactive),> 100 µM (inactive),> 100 µM (inactive),> 100 µM (inactive),> 100 µM (inactive),–
NC(=O)CNC(=O)C1CC(O)CN1C(=O)C1CCCN1C(=O)OCc1ccccc1 (stereo not drawn) (Cbz-Pro-[Hyp]-Gly-NH2; configuration not given here),> 100 µM (inactive),> 100 µM (inactive),> 100 µM (inactive),> 100 µM (inactive),> 100 µM (inactive),> 100 µM (inactive),> 100 µM (inactive),> 100 µM (inactive),> 100 µM (inactive),> 100 µM (inactive),> 100 µM (inactive),> 100 µM (inactive),> 100 µM (inactive),> 100 µM (inactive),> 100 µM (inactive),> 100 µM (inactive),> 100 µM (inactive),> 100 µM (inactive),–,–
O=[N+]([O-])c1ccc(Cl)cc1N/N=C/c1ccnc2ccccc12,> 100 µM (inactive),> 100 µM (inactive),> 100 µM (inactive),> 100 µM (inactive),52.4 µM (inactive),> 100 µM (inactive),–,> 100 µM (inactive),> 100 µM (inactive),> 100 µM (inactive),–,> 100 µM (inactive),–,> 100 µM (inactive),> 100 µM (inactive),> 100 µM (inactive),42.9 µM (inactive),53.3 µM (inactive),21.9 µM (inactive),> 100 µM (inactive)
CCOC1CC(C)N(C(=O)c2ccccc2)O1 (centres undefined),> 100 µM (inactive),> 100 µM (inactive),–,> 100 µM (inactive),> 100 µM (inactive),> 100 µM (inactive),> 10 µM (inactive),–,> 100 µM (inactive),–,> 100 µM (inactive),–,–,> 100 µM (inactive),> 100 µM (inactive),> 100 µM (inactive),> 100 µM (inactive),> 100 µM (inactive),> 100 µM (inactive),–
O=C1Cc2c([nH]c3ccc(Br)cc23)-c2cc(O)c(O)cc2N1,> 100 µM (inactive),> 100 µM (inactive),> 100 µM (inactive),–,> 100 µM (inactive),> 100 µM (inactive),–,> 100 µM (inactive),> 100 µM (inactive),> 100 µM (inactive),> 100 µM (inactive),> 100 µM (inactive),> 100 µM (inactive),> 100 µM (inactive),> 100 µM (inactive),> 100 µM (inactive),–,> 100 µM (inactive),–,> 100 µM (inactive)
O=[N+]([O-])/C(C(Cl)=C(Cl)Cl)=C(\Nc1cccc2ccccc12)Sc1ccccc1,13.9 µM (inactive),18.4 µM (inactive),15.1 µM (inactive),19.5 µM (inactive),12.8 µM (inactive),24.9 µM (inactive),17.5 µM (inactive),–,7.31 µM (inactive),10.4 µM (inactive),20.3 µM (inactive),6.89 µM (inactive),14.6 µM (inactive),18.8 µM (inactive),19.5 µM (inactive),16 µM (inactive),15 µM (inactive),15.2 µM (inactive),19.3 µM (inactive),15.5 µM (inactive)

# Reference: ChEMBL document CHEMBL1201862, “PubChem BioAssay data set” (2004)
